Test results: US10829497B2, “Crystal form II of thienopyridine derivative bisulfate and preparation method therefor and use thereof” (ZHONGRONG KAITE (BEIJING) BIOTECHNOLOGY CO., LTD., priority 2017, dated 2020)
Where two headings read alike, the source gives them in different places.

Method: Stability Study of the Hydrogen Sulfate Crystal Form I and Form II of the Compound of Formula I Under High Temperature and High Humidity Conditions
Setting the hydrogen sulfate crystal form I and form II of the compound of formula I at temperature of 60° C. and high humidity (25° C., relative humidity of 90%±5%) respectively for 10 days. Samples were taken on the 0, 5th and 10th days and determined by high performance liquid chromatography to investigate the changes in impurities.
Chromatographic conditions: Agilent 1100 for high performance liquid chromatography; chromatographic column ULTRON ES-OVM (5 μm, 4.6 mm×150 mm); mobile phase 0.01 mol/L potassium dihydrogen phosphate aqueous solution-acetonitrile (80:20); detection wavelength 220 nm; column temperature 30° C.; flow rate 1.0 mL/min; injection volume 10 μL.
Test method: accurately weighting 5 mg of the test probe, placing it in a 10 mL volumetric flask, adding 1 mL of methanol, dissolving with ultrasound, diluting to the mark with mobile phase and shaking to make a test solution with a concentration of 0.5 mg/mL. Precisely injecting 10 μL of the test solution into the liquid chromatography, recording the chromatogram and calculating the total content of impurities according to peak area normalization method.

| Compound | Total Impurity Content (peak area %) (High Humidity (25° C., relative humidity of 90%±5%), 0 day, listed as I) | Total Impurity Content (peak area %) (High Humidity (25° C., relative humidity of 90%±5%), 5th day, listed as I) | Total Impurity Content (peak area %) (High Humidity (25° C., relative humidity of 90%±5%), 10th day, listed as I) | Total Impurity Growth Rate (High Humidity (25° C., relative humidity of 90%±5%), 10 days, listed as I) [%] | Total Impurity Content (peak area %) (High Temperature (60° C.), 0 day, listed as I) | Total Impurity Content (peak area %) (High Temperature (60° C.), 5th day, listed as I) | Total Impurity Content (peak area %) (High Temperature (60° C.), 10th day, listed as I) | Total Impurity Growth Rate (High Temperature (60° C.), 10 days, listed as I) [%] | Total Impurity Content (peak area %) (High Humidity (25° C., relative humidity of 90%±5%), 0 day, listed as II) | Total Impurity Content (peak area %) (High Humidity (25° C., relative humidity of 90%±5%), 5th day, listed as II) | Total Impurity Content (peak area %) (High Humidity (25° C., relative humidity of 90%±5%), 10th day, listed as II) | Total Impurity Growth Rate (High Humidity (25° C., relative humidity of 90%±5%), 10 days, listed as II) [%] | Total Impurity Content (peak area %) (High Temperature (60° C.), 0 day, listed as II) | Total Impurity Content (peak area %) (High Temperature (60° C.), 5th day, listed as II) | Total Impurity Content (peak area %) (High Temperature (60° C.), 10th day, listed as II) | Total Impurity Growth Rate (High Temperature (60° C.), 10 days, listed as II) [%] | stability compared with the hydrogen sulfate form I (high temperature and high humidity conditions, 10 days) |
| --- | --- | --- | --- | --- | --- | --- | --- | --- | --- | --- | --- | --- | --- | --- | --- | --- | --- |
| [2H]C([2H])([2H])OC(=O)[C@H](c1ccccc1Cl)N1CCc2sccc2C1 [Crystal Form I, Methyl-d3 (2S)-2-(2-chlorophenyl)-2-(6,7-dihydrothieno[3,2-c]pyridin-5(4H)-yl)acetate] | 0.386 | 0.438 | 0.576 | 49.2 | 0.386 | 0.597 | 0.812 | 110 |  |  |  |  |  |  |  |  |  |
| [2H]C([2H])([2H])OC(=O)[C@H](c1ccccc1Cl)N1CCc2sccc2C1 [Crystal Form II, Methyl-d3 (2S)-2-(2-chlorophenyl)-2-(6,7-dihydrothieno[3,2-c]pyridin-5(4H)-yl)acetate] |  |  |  |  |  |  |  |  | 0.372 | 0.409 | 0.533 | 43.3 | 0.372 | 0.526 | 0.737 | 98.1 | better stability |
